The test system of this assay is whole cells (NMuLi, C2Cl2, and L6 cells, isolated cardiomyocytes, human primary fibroblasts). The experiment in a line: Oxygen consumption rate (OCR) in whole cells, Seahorse XF-24 Flux Analyzer. Format: cell-based. The conditions noted are these: cell type for Table 1 not stated, read-out: OCR Activity (increase in OCR), binned EC50. Here is the method: Biological activities of the compounds synthesized is determined by determining increase in oxygen consumption rate (OCR).
Oxygen consumption rate (OCR) in whole cells is measured in general accordance with the method of Kenwood B M et al. (Mol. Met. (2014) 3: 114-123).
OCR is measured using a Seahorse XF-24 Flux Analyzer (Seahorse Biosciences, North Billerica, Mass.). NMuLi, C2Cl2, and L6 cells are seeded in a Seahorse 24-well tissue culture plate at a density of 3.5×10^4 cells/well, isolated cardiomyocytes at a density of 4×10^4 cells/well, and human primary fibroblasts at a density of 1.1×10^4 cells/well. The cells are then allowed to adhere for 24 h. Prior to the assay, the media is changed to unbuffered DMEM containing pyruvate and glutamine (Gibco #12800-017, pH=7.4 at 37° C.) and the cells are equilibrated for 30 mins at 37° C. Compounds are injected during the assay and OCR is measured using 2 min measurement periods.
2-3 wells are used per condition and averaged over three plates (n=6-9). Statistical significance is determined by two-way ANOVA with Bonfenoni's posttest.
Activities are reported as binned EC50 values: A=5 μM or less; B=>5 to 20 μM; C=over 20 μM; NA=no effect.
As to `COc1nc2[nH]c(C(F)(F)F)nc2cc1Nc1cccc(F)c1` [Compound 2-67, N-(3-fluorophenyl)-5-methoxy-2-(trifluoromethyl)-3H-imidazo[4,5-b]pyridin-6-amine], the EC50 is 5 to 20 µM.
The figure for `COc1nc2[nH]c(C(F)(F)F)nc2nc1Oc1ccc(C(F)(F)F)cc1` [Compound 2-40, 6-methoxy-2-(trifluoromethyl)-5-(4-(trifluoromethyl)phenoxy)-1H-imidazo[4,5-b]pyrazine] is at most 5 µM; for `COc1nc2[nH]c(C(F)(F)F)nc2nc1Nc1ccc(OC(F)(F)F)cc1I` [Compound 2-41, N-(2-iodo-4-(trifluoromethoxy)phenyl)-6-methoxy-2-(trifluoromethyl)-1H-imidazo[4,5-b]pyrazin-5-amine] it is 5 to 20 µM.
For `COc1nc2[nH]c(C(F)(F)F)nc2cc1Nc1cccc(C(C)(C)C)c1` [Compound 2-70, N-(3-(tert-butyl)phenyl)-5-methoxy-2-(trifluoromethyl)-3H-imidazo[4,5-b]pyridin-6-amine], the EC50 was over 20 µM.
In the case of `COc1nc2nc(C(F)(F)F)[nH]c2nc1N(C)c1ccc(C(F)(F)F)cc1` [Compound 2-49, 5-methoxy-N-methyl-2-(trifluoromethyl)-N-(4-(trifluoromethyl)phenyl)-1H-imidazo[4,5-b]pyrazin-6-amine] it was at most 5 µM; in that of `COc1nc2nc(C(F)(F)F)[nH]c2cc1Nc1cccc(OC(F)(F)F)c1` [Compound 2-63, 5-methoxy-N-(3-(trifluoromethoxy)phenyl)-2-(trifluoromethyl)-1H-imidazo[4,5-b]pyridin-6-amine], over 20 µM; in that of `COc1nc2[nH]c(-c3ccccc3)nc2nc1Nc1ccc(OC(F)(F)F)cc1` [Compound 2-60, 6-methoxy-2-phenyl-N-(4-(trifluoromethoxy)phenyl)-1H-imidazo[4,5-b]pyrazin-5-amine], over 20 µM.
As for `CCCCc1ccc(Nc2nc3nc(C(F)(F)F)[nH]c3nc2OC)cc1` [Compound 2-2, 6-methoxy-N-(4-(N-butyl)phenyl)-2-(trifluoromethyl)-1H-imidazo[4,5-b]pyrazin-5-amine], the EC50 is 5 to 20 µM.
Take `CCOc1nc2[nH]c(C(F)(F)F)nc2nc1Nc1ccc(OC(F)(F)F)cc1` [Compound 2-37, 6-ethoxy-N-(4-(trifluoromethoxy)phenyl)-2-(trifluoromethyl)-1H-imidazo[4,5-b]pyrazin-5-amine]: the EC50 was over 20 µM.
The figure for `COc1nc2nc(C(F)(F)F)[nH]c2cc1Nc1ccc(C(F)(F)F)cc1` [Compound 2-64, 5-methoxy-2-(trifluoromethyl)-N-(4-(trifluoromethyl)phenyl)-1H-imidazo[4,5-b]pyridin-6-amine] is 5 to 20 µM.
In the case of `COc1nc2[nH]c(C(F)(F)F)nc2nc1Nc1cc(C(F)(F)F)ccc1F` [Compound 2-3, 6-methoxy-N-(2-fluoro-5-(trifluoromethyl)phenyl)-2-(trifluoromethyl)-1H-imidazo[4,5-b]pyrazin-5-amine] it was over 20 µM; in that of `COc1nc2[nH]c(C(F)(F)F)nc2nc1Nc1ccc2ccccc2c1` [Compound 2-20, 6-methoxy-N-(naphthalen-2-yl)-2-(trifluoromethyl)-1H-imidazo[4,5-b]pyrazin-5-amine], 5 to 20 µM.
In the case of `COc1nc2nc(C(F)(F)F)[nH]c2cc1Nc1ccc(OC(F)(F)F)cc1` [Compound 2-62, 5-methoxy-N-(4-(trifluoromethoxy)phenyl)-2-(trifluoromethyl)-1H-imidazo[4,5-b]pyridin-6-amine] it was 5 to 20 µM; in that of `COc1nc2[nH]c(C(F)(F)F)nc2nc1Nc1cccc(I)c1` [Compound 2-31, 6-methoxy-N-(3-iodophenyl)-2-(trifluoromethyl)-1H-imidazo[4,5-b]pyrazin-5-amine], 5 to 20 µM; in that of `Oc1nc2[nH]c(C(F)(F)F)nc2nc1Nc1ccc(C(F)(F)F)cc1` [Compound 2-55, 5-((4-(trifluoromethyl)phenyl)amino)-2-(trifluoromethyl)-1H-imidazo[4,5-b]pyrazin-6-ol], over 20 µM.
As for `COc1nc2nc(C(F)(F)F)[nH]c2cc1Nc1cccc(C(F)(F)F)c1` [Compound 2-65, 5-methoxy-2-(trifluoromethyl)-N-(3-(trifluoromethyl)phenyl)-1H-imidazo[4,5-b]pyridin-6-amine], the EC50 is over 20 µM.
The figure for `CC(C)Oc1nc2nc(C(F)(F)F)[nH]c2nc1Nc1ccc(C(F)(F)F)cc1` [Compound 2-45, 5-isopropoxy-2-(trifluoromethyl)-N-(4-(trifluoromethyl)phenyl)-1H-imidazo[4,5-b]pyrazin-6-amine] is over 20 µM.
As for `COc1nc2[nH]c(C(F)(F)F)nc2cc1Nc1ccc(OC(F)(F)F)cc1C` [Compound 2-74, 5-methoxy-N-(2-methyl-4-(trifluoromethoxy)phenyl)-2-(trifluoromethyl)-3H-imidazo[4,5-b]pyridin-6-amine], the EC50 was at most 5 µM.
The figure for `COc1nc2[nH]c(C(F)(F)F)nc2nc1Nc1ccccc1F` [Compound 2-9, 6-methoxy-(2-fluorophenyl)-2-(trifluoromethyl)-1H-imidazo[4,5-b]pyrazin-5-amine] is 5 to 20 µM.
In the case of `COc1nc2[nH]c(C(F)(F)F)nc2cc1Nc1ccc(C)cc1` [Compound 2-73, 5-methoxy-N-(p-tolyl)-2-(trifluoromethyl)-3H-imidazo[4,5-b]pyridin-6-amine] it was over 20 µM; in that of `FC(F)(F)c1ccc(Nc2nc3[nH]c(C(F)(F)F)nc3nc2Oc2ccc(C(F)(F)F)cc2)cc1` [Compound 2-47, 2-(trifluoromethyl)-5-(4-(trifluoromethyl)phenoxy)-N-(4-(trifluoromethyl)phenyl)-1H-imidazo[4,5-b]pyrazin-6-amine], at most 5 µM; in that of `COc1nc2nc(C(F)(F)F)[nH]c2cc1Nc1ccc(-c2ccc(C(F)(F)F)nc2)cc1` [Compound 2-75, 5-methoxy-2-(trifluoromethyl)-N-(4-(6-(trifluoromethyl)pyridin-3-yl)phenyl)-1H-imidazo[4,5-b]pyridin-6-amine], 5 to 20 µM.
Take `Oc1nc2nc(-c3cccc(F)c3)oc2nc1Nc1cc(C(F)(F)F)cc(C(F)(F)F)c1` [Compound 4-5, 6-((3,5-bis(trifluoromethyl)phenyl)amino)-2-(3-fluorophenyl)oxazolo[4,5-b]pyrazin-5-ol]: the EC50 lay in the range of 5 to 20 µM.
In the case of `CCOc1nc2[nH]c(C(F)(F)F)nc2nc1Nc1ccc(OC(F)(F)F)cc1F` [Compound 2-38, 6-ethoxy-N-(2-fluoro-4-(trifluoromethoxy)phenyl)-2-(trifluoromethyl)-1H-imidazo[4,5-b]pyrazin-5-amine] it was 5 to 20 µM.
The figure for `COc1nc2[nH]c(C(F)(F)F)nc2nc1Nc1ccc(OC(F)(F)F)c(Cl)c1` [Compound 2-43, N-(3-chloro-4-(trifluoromethoxy)phenyl)-6-methoxy-2-(trifluoromethyl)-1H-imidazo[4,5-b]pyrazin-5-amine] is over 20 µM; for `COc1nc2[nH]c(C(F)(F)F)nc2nc1Nc1ccc(-c2ccccc2)cc1` [Compound 2-18, N-([1,1′-biphenyl]-4-yl)-6-methoxy-2-(trifluoromethyl)-1H-imidazo[4,5-b]pyrazin-5-amine] it is over 20 µM.
The figure for `COc1nc2[nH]c(C(F)(F)C(F)(F)F)nc2nc1Nc1cccc(C(F)(F)F)c1F` [Compound 2-34] is 5 to 20 µM.

By EC50 is commonly meant the midpoint of the concentration-response curve.

Source of the values: patent publication US11708376B2 (VIRGINIA TECH INTELLECTUAL PROPERTIES, INC., priority 2018, dated 2023).
